Laboratory results published in US8129417B2, “Substituted octahydrocyclopenta[C]pyrrol-4-amines as calcium channel blockers” (Abbott Laboratories, priority 2008, dated 2012).

These compounds were tested against human Cav2.2 (Homo sapiens, UniProt Q00975) (assay: Assessment of calcium channel activity using FLIPR (Ca2+ influx in IMR32 cells)). Conditions: 60 minute pre-incubation with compound, 2 μM nifedipine, depolarized with 80 mM KCl.
Type: cell-based
How it was run: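 IC50 came from sigmoidal non-linear regression of percent inhibition, relative to uninhibited activity, across compound concentrations. Calcium influx was measured by FLIPR in IMR32 cells plated at 1-1.2×10^5 cells/well and cultured 48 h at 37 °C.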

Chain of human Cav2.2 (Q00975 whole entry): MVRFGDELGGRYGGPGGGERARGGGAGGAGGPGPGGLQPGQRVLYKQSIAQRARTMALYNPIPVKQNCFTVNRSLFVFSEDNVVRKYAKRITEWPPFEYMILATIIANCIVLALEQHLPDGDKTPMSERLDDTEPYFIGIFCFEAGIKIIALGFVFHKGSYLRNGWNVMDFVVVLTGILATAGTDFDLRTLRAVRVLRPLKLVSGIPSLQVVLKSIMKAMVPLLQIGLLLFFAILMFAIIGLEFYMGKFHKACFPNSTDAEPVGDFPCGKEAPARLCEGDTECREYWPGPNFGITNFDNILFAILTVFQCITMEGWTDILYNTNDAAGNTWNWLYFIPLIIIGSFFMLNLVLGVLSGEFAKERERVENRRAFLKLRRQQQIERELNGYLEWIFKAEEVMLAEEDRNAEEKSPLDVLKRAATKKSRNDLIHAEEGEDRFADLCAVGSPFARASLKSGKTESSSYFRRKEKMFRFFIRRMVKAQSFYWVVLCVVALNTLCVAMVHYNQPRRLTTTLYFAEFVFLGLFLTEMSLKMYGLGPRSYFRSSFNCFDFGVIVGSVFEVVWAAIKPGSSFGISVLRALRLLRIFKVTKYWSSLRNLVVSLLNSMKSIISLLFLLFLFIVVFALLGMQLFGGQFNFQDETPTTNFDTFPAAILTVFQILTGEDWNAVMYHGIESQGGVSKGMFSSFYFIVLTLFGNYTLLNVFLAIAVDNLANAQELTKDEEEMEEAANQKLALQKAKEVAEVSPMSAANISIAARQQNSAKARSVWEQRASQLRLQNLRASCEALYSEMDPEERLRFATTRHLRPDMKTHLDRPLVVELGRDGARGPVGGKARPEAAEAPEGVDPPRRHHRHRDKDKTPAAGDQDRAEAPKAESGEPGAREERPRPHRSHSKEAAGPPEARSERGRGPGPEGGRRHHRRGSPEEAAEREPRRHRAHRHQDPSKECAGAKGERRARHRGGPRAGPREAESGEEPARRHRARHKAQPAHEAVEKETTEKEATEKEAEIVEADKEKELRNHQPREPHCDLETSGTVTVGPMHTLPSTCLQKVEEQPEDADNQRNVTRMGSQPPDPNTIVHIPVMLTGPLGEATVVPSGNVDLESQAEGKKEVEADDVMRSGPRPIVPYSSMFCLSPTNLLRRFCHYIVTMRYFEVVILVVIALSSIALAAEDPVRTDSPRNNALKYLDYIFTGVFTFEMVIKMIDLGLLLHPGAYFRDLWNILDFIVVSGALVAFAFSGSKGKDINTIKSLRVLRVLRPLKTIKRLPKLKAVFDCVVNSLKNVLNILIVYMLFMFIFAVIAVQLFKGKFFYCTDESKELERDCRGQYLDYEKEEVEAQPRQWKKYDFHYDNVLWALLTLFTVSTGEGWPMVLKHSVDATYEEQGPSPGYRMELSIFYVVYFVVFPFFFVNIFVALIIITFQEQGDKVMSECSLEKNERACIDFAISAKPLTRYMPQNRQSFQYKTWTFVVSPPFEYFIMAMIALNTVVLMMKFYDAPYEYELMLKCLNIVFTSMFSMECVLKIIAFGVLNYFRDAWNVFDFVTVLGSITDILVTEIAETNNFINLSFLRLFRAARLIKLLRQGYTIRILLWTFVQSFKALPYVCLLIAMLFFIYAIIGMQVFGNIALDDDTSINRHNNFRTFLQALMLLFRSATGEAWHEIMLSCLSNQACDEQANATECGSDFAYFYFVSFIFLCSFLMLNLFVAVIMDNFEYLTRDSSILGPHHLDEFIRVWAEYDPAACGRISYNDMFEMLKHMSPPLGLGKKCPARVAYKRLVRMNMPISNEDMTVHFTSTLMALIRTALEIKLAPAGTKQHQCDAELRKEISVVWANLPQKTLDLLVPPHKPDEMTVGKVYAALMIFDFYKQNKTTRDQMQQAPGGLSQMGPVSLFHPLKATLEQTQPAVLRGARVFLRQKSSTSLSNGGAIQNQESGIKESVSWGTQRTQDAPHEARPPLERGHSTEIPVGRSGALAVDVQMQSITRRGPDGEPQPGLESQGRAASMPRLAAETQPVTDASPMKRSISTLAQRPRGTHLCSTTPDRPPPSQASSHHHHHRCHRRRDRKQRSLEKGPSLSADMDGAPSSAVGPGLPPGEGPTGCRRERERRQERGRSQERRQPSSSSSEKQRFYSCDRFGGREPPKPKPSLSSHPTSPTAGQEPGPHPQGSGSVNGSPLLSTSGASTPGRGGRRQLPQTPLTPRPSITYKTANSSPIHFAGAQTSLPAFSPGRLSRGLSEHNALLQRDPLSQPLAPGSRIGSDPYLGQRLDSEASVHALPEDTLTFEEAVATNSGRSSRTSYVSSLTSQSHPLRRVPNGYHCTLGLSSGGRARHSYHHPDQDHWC
Chain of human Cav2.2 (P54289 25-946 partner limits assumed): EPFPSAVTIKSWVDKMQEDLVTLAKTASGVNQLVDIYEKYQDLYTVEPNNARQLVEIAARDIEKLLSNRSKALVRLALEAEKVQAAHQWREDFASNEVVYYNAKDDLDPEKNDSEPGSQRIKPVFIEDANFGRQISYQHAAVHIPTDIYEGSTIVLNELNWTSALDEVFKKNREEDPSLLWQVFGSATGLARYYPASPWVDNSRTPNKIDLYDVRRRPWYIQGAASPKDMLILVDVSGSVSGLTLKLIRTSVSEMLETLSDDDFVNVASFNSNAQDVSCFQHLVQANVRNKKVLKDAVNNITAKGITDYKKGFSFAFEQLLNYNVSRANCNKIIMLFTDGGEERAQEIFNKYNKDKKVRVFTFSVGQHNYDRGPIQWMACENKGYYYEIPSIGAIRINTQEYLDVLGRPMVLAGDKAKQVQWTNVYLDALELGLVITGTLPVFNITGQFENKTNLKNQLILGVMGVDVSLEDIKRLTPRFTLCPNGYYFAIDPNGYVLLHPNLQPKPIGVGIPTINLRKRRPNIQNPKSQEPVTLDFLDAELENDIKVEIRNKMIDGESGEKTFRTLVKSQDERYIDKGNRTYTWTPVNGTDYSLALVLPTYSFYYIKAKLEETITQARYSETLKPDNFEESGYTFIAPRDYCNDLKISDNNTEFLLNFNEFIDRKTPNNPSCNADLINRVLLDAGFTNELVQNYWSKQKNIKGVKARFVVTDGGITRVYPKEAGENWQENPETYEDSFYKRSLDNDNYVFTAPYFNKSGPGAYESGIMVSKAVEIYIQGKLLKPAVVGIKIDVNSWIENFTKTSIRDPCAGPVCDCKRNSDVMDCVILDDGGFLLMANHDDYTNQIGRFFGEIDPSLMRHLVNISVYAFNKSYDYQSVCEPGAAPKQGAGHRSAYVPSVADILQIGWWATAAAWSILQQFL
Chain of human Cav2.2 (P54289 947-1103 partner limits assumed): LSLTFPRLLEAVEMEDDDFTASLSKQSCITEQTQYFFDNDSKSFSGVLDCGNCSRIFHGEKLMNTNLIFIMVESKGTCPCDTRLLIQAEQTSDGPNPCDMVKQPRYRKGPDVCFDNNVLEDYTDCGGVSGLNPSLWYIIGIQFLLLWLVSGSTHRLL
Chain of human Cav2.2 (P54284 whole entry partner): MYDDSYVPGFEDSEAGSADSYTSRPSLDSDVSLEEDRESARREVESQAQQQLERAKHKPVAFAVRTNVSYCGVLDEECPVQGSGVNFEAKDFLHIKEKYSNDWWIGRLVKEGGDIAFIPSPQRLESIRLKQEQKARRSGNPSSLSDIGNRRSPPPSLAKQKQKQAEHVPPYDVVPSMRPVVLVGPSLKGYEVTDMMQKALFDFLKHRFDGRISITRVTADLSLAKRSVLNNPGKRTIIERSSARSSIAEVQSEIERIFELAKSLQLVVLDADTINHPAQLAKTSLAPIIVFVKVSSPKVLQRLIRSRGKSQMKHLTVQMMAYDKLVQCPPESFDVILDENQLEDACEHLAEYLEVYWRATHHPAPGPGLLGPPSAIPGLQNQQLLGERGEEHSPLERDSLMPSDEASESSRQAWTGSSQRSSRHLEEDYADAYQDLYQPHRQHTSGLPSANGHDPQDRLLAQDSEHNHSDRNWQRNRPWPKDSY

First: CC(C)[C@@H](C(=O)N[C@H]1CC[C@@H]2CN(S(=O)(=O)c3cccc(C(F)(F)F)c3)C[C@@H]21)N(C)C(=O)OC(C)(C)C [Example 273, tert-butyl methyl((S)-3-methyl-1-oxo-1-((3aR,4S,6aS)-2-(3-(trifluoromethyl)phenylsulfonyl)octahydrocyclopenta[c]pyrrol-4-ylamino)butan-2-yl)carbamate]
Second: CCC[C@@H](C(=O)N[C@H]1CC[C@@H]2CN(S(=O)(=O)c3cccc(C(F)(F)F)c3)C[C@@H]21)N(C)C(=O)OC(C)(C)C [Example 278, tert-butyl methyl((S)-1-oxo-1-((3aR,4S,6aS)-2-(3-(trifluoromethyl)phenylsulfonyl)octahydrocyclopenta[c]pyrrol-4-ylamino)pentan-2-yl)carbamate]
The IC50 of the first is 1.9-fold lower: 180 nM for the first, 340 nM for the second.

Going from `CC(C)(C)OC(=O)N1CCCC[C@H]1C(=O)N[C@H]1CC[C@@H]2CN(S(=O)(=O)c3cccc(C(F)(F)F)c3)C[C@@H]21` [Example 274, tert-butyl(2S)-2-{[((3aR,4S,6aS)-2-{[3-(trifluoromethyl)phenyl]sulfonyl}octahydrocyclopenta[c]pyrrol-4-yl)amino]carbonyl}piperidine-1-carboxylate] to `CC(C)(C)OC(=O)N1Cc2ccccc2C[C@H]1C(=O)N[C@H]1CC[C@@H]2CN(S(=O)(=O)c3cccc(C(F)(F)F)c3)C[C@@H]21` [Example 275, tert-butyl(3S)-3-{[((3aR,4S,6aS)-2-{[3-(trifluoromethyl)phenyl]sulfonyl}octahydrocyclopenta[c]pyrrol-4-yl)amino]carbonyl}-3,4-dihydroisoquinoline-2(1H)-carboxylate], the IC50 falls from 1380 nM to 920 nM (1.5-fold). The second is the more potent here.

First: CC(C)(C)C[C@H](NC(=O)OC(C)(C)C)C(=O)N[C@H]1CC[C@@H]2CN(S(=O)(=O)c3cccc(C(F)(F)F)c3)C[C@@H]21 [Example 276, tert-butyl(S)-4,4-dimethyl-1-oxo-1-((3aR,4S,6aS)-2-(3-(trifluoromethyl)phenylsulfonyl)octahydrocyclopenta[c]pyrrol-4-ylamino)pentan-2-ylcarbamate]
Second: CCCC[C@@H](C(=O)N[C@H]1CC[C@@H]2CN(S(=O)(=O)c3cccc(C(F)(F)F)c3)C[C@@H]21)N(C)C(=O)OC(C)(C)C [Example 277, tert-butyl methyl((S)-1-oxo-1-((3aR,4S,6aS)-2-(3-(trifluoromethyl)phenylsulfonyl)octahydrocyclopenta[c]pyrrol-4-ylamino)hexan-2-yl)carbamate]
The IC50 of the first is 1.9-fold lower: 380 nM for the first, 720 nM for the second.

`CC(C)(C)CN[C@@H]1CC[C@H]2CN(S(=O)(=O)c3cccc(C(F)(F)F)c3)C[C@H]21` [Example 281, (3aS,4R,6aR)—N-neopentyl-2-{[3-(trifluoromethyl)phenyl]sulfonyl}octahydrocyclopenta[c]pyrrol-4-amine] and `CC(C)(C)CN[C@H]1CC[C@@H]2CN(S(=O)(=O)c3cccc(C(F)(F)F)c3)C[C@@H]21` [Example 282, (3aR,4S,6aS)—N-neopentyl-2-{[3-(trifluoromethyl)phenyl]sulfonyl}octahydrocyclopenta[c]pyrrol-4-amine] are within 1.5-fold of each other in IC50: 4180 nM for the first, 5240 nM for the second.

`CC(C)N[C@H]1CC[C@@H]2CN(S(=O)(=O)c3ccc(C(F)(F)F)cc3)C[C@@H]21` [Example 283, (3aR,4S,6aS)—N-isopropyl-2-{[4-(trifluoromethyl)phenyl]sulfonyl}octahydrocyclopenta[c]pyrrol-4-amine] and `CCN[C@H]1CC[C@@H]2CN(S(=O)(=O)c3ccc(C(F)(F)F)cc3)C[C@@H]21` [Example 288, (3aR,4S,6aS)—N-ethyl-2-{[4-(trifluoromethyl)phenyl]sulfonyl}octahydrocyclopenta[c]pyrrol-4-amine] are within 1.5-fold of each other in IC50: 8690 nM for the first, 10400 nM for the second.

`O=S(=O)(c1cccc(C(F)(F)F)c1)N1C[C@@H]2CC[C@@H](NCc3ccc(F)cc3)[C@@H]2C1` [Example 285, (3aS,4R,6aR)—N-(4-fluorobenzyl)-2-{[3-(trifluoromethyl)phenyl]sulfonyl}octahydrocyclopenta[c]pyrrol-4-amine] and `O=S(=O)(c1cccc(C(F)(F)F)c1)N1C[C@H]2CC[C@H](NCc3ccc(F)cc3)[C@H]2C1` [Example 286, (3aR,4S,6aS)—N-(4-fluorobenzyl)-2-{[3-(trifluoromethyl)phenyl]sulfonyl}octahydrocyclopenta[c]pyrrol-4-amine] are within 1.5-fold of each other in IC50: 480 nM for the first, 380 nM for the second.

`Fc1ccc(CN[C@H]2CC[C@@H]3CN(Cc4cccc(C(F)(F)F)c4)C[C@@H]32)cc1` [Example 287, (3aR,4S,6aS)—N-(4-fluorobenzyl)-2-[3-(trifluoromethyl)benzyl]octahydrocyclopenta[c]pyrrol-4-amine] and `CC(C)C(C(=O)N[C@@H]1CC[C@H]2CN(Cc3cccc(C(F)(F)F)c3)C[C@H]21)C(C)C` [Example 304, 2-isopropyl-3-methyl-N-{(3aS,4R,6aR)-2-[3-(trifluoromethyl)benzyl]octahydrocyclopenta[c]pyrrol-4-yl}butanamide] are within 1.5-fold of each other in IC50: 3090 nM for the first, 3780 nM for the second.

Going from `CCCN[C@H]1CC[C@@H]2CN(S(=O)(=O)c3ccc(C(F)(F)F)cc3)C[C@@H]21` [Example 290, (3aR,4S,6aS)—N-propyl-2-{[4-(trifluoromethyl)phenyl]sulfonyl}octahydrocyclopenta[c]pyrrol-4-amine] to `O=S(=O)(c1ccc(C(F)(F)F)cc1)N1C[C@H]2CC[C@H](NCC3CC3)[C@H]2C1` [Example 292, (3aR,4S,6aS)—N-(cyclopropylmethyl)-2-{[4-(trifluoromethyl)phenyl]sulfonyl}octahydrocyclopenta[c]pyrrol-4-amine], the IC50 falls from 7800 nM to 3910 nM (2-fold).

First: CCCN(CCC)[C@H]1CC[C@@H]2CN(S(=O)(=O)c3ccc(C(F)(F)F)cc3)C[C@@H]21 [Example 291, (3aR,4S,6aS)—N,N-dipropyl-2-{[4-(trifluoromethyl)phenyl]sulfonyl}octahydrocyclopenta[c]pyrrol-4-amine]
Second: CCCN(C(=O)[C@H](CC(C)(C)C)N(C)C(=O)OC(C)(C)C)[C@H]1CC[C@@H]2CN(S(=O)(=O)c3ccc(C(F)(F)F)cc3)C[C@@H]21 [Example 297, tert-butyl(S)-4,4-dimethyl-1-oxo-1-(propyl((3aR,4S,6aS)-2-(4-(trifluoromethyl)phenylsulfonyl)octahydrocyclopenta[c]pyrrol-4-yl)amino)pentan-2-yl(methyl)carbamate]
The IC50 of the first is 1.8-fold lower: 4400 nM for the first, 7880 nM for the second. The first is the more potent here.

`CCN[C@H]1CC[C@@H]2CN(S(=O)(=O)c3ccc(C(F)(F)F)cc3Cl)C[C@@H]21` [Example 293, (3aR,4S,6aS)-2-{[2-chloro-4-(trifluoromethyl)phenyl]sulfonyl}-N-ethyloctahydrocyclopenta[c]pyrrol-4-amine] and `O=[N+]([O-])c1ccccc1S(=O)(=O)N[C@H]1CC[C@@H]2CN(S(=O)(=O)c3ccc(C(F)(F)F)cc3)C[C@@H]21` [Example 299, 2-nitro-N-((3aR,4S,6aS)-2-{[4-(trifluoromethyl)phenyl]sulfonyl}octahydrocyclopenta[c]pyrrol-4-yl)benzenesulfonamide] are within 1.5-fold of each other in IC50: 4820 nM for the first, 3680 nM for the second.

First: CCN(C(=O)[C@H](CC(C)(C)C)N(C)C(=O)OC(C)(C)C)[C@H]1CC[C@@H]2CN(S(=O)(=O)c3ccc(C(F)(F)F)cc3)C[C@@H]21 [Example 296, tert-butyl(S)-1-(ethyl((3aR,4S,6aS)-2-(4-(trifluoromethyl)phenylsulfonyl)octahydrocyclopenta[c]pyrrol-4-yl)amino)-4,4-dimethyl-1-oxopentan-2-yl(methyl)carbamate]
Second: CN(C(=O)OC(C)(C)C)[C@@H](CC(C)(C)C)C(=O)N(C)[C@H]1CC[C@@H]2CN(S(=O)(=O)c3ccc(C(F)(F)F)cc3)C[C@@H]21 [Example 302, tert-butyl(S)-4,4-dimethyl-1-(methyl((3aR,4S,6aS)-2-(4-(trifluoromethyl)phenylsulfonyl)octahydrocyclopenta[c]pyrrol-4-yl)amino)-1-oxopentan-2-yl(methyl)carbamate]
The IC50 of the first is 1.9-fold higher: 2140 nM for the first, 1140 nM for the second. The second is the more potent here.

`CN([C@H]1CC[C@@H]2CN(S(=O)(=O)c3ccc(C(F)(F)F)cc3)C[C@@H]21)S(=O)(=O)c1ccccc1[N+](=O)[O-]` [Example 300, N-methyl-2-nitro-N-((3aR,4S,6aS)-2-{[4-(trifluoromethyl)phenyl]sulfonyl}octahydrocyclopenta[c]pyrrol-4-yl)benzenesulfonamide] and `CC(C)C[C@@H](C(=O)N[C@H]1CC[C@@H]2CN(Cc3cccc(C(F)(F)F)c3)C[C@@H]21)N(C)C(=O)OC(C)(C)C` [Example 307, tert-butyl methyl((S)-4-methyl-1-oxo-1-((3aR,4S,6aS)-2-(3-(trifluoromethyl)benzyl)octahydrocyclopenta[c]pyrrol-4-ylamino)pentan-2-yl)carbamate] are the same in IC50: 1540 nM for the first, 1540 nM for the second.

`CC(C)C[C@@H](C(=O)N[C@@H]1CC[C@H]2CN(Cc3cccc(C(F)(F)F)c3)C[C@H]21)N1CCCS1(=O)=O` [Example 303, (2S)-2-(1,1-dioxidoisothiazolidin-2-yl)-4-methyl-N-{(3aS,4R,6aR)-2-[3-(trifluoromethyl)benzyl]octahydrocyclopenta[c]pyrrol-4-yl}pentanamide] and `CC(C)C(C(=O)N[C@H]1CC[C@@H]2CN(Cc3cccc(C(F)(F)F)c3)C[C@@H]21)C(C)C` [Example 305, 2-isopropyl-3-methyl-N-{(3aR,4S,6aS)-2-[3-(trifluoromethyl)benzyl]octahydrocyclopenta[c]pyrrol-4-yl}butanamide] are within 1.5-fold of each other in IC50: 3110 nM for the first, 3510 nM for the second.

Going from `CC(C)C[C@H](NC(=O)OC(C)(C)C)C(=O)N[C@H]1CC[C@@H]2CN(Cc3cccc(C(F)(F)F)c3)C[C@@H]21` [Example 306, tert-butyl(S)-4-methyl-1-oxo-1-((3aR,4S,6aS)-2-(3-(trifluoromethyl)benzyl)octahydrocyclopenta[c]pyrrol-4-ylamino)pentan-2-ylcarbamate] to `CC(C)C[C@@H](C(=O)N[C@H]1CC[C@@H]2CN(Cc3ccc(F)cc3)C[C@@H]21)N(C)C(=O)OC(C)(C)C` [Example 309, tert-butyl(S)-1-((3aR,4S,6aS)-2-(4-fluorobenzyl)octahydrocyclopenta[c]pyrrol-4-ylamino)-4-methyl-1-oxopentan-2-yl(methyl)carbamate], the IC50 rises from 500 nM to 1740 nM (3.5-fold). The first is the more potent here.
